Experimental data as given in US7585839B2, “Medical uses of intercellular communication facilitating compounds” (Zealand Pharma A/S, priority 2001, dated 2009).
Where a SMILES comes first, the peptide text is derived from it. [ ]: non-standard residue; d: D form. Hyp = O=C(O)[C@@H]1C[C@@H](O)CN1

Experiments:
[1] = tested on: calcium-induced arrythmias; experiment: Calcium-induced arrhythmia model in mice (CaCl2-induced 2nd degree AV-block); format: in vivo; settings: for CaCl2 mice In vivo, % / CaCl2 mice Score: calcium chloride induced arrythmia model; for In vivo activity: maximal effect, increase in time until 2nd degree AV-block relative to vehicle treated mice, i.v.
Experimental: The antiarrhythmic effects of compounds of this invention were tested in an in vivo model of calcium-induced arrythmias according to the model of Lynch et al.^[37]. […]. Commercial solutions of hypnorm and midazolam were diluted 1:1 in distilled water and one part diluted Hypnorm® is mixed with one part diluted midazolam.
The anaesthesia was induced by s.c. administration in a dose of 0.05-0.075 μl/10 gram mouse. An i.v. cannula was inserted into the tail vein. The lead II ECG signal was recorded continuously by positioning of a stainless steel ECG electrodes on the right forelimb and on the left hind limb. The ground electrode was placed on the right hind limb. The signal was amplified (×5.000-10.000) and filtered (0.1-150 Hz) via a Hugo Sachs Electronic model 689 ECG module. The analogue signal was digitised via a 12 bit data acquisition board (Data Translation model DT321) and sampled at 1000 Hz using the Notocord HEM 3.1 software for Windows NT. After a 10-min equilibration period, the test sample of drug was injected into the tail vein. Mice pre-treated with vehicle were tested as a measure of the control level in untreated animals. The injection volume was 100 μl in all experiments. Infusion of CaCl2 (30 mg/ml, 0.1 ml/min≈100 mg/kg/min (calciumchlorid-2-hydrat, Riedel-de Haën, Germany)) was started 3 min after i.v. administration of drug or vehicle.
The time lag to onset of 2nd degree AV-block was determined as the time from the start of CaCl2 infusion until the first arrhythmic event occured. An event of 2nd degree AV-block was defined as intermittent failure of the AV conduction characterised by a P-wave without the concomitant QRS complex.
Responses were expressed relative to the time until 2nd degree AV-block occurred in vehicle treated mice.

[2] = tested on: WB-F344 rat liver epithelial cells; settings: cited from earlier work
[3] = In vitro plasma and serum stability, rabbit; format: in vitro ADME; settings: 37° C., 0.1 mg/ml
Experimental: (§1) The stability of peptides is analysed in serum and plasma. The peptides are incubated at 37° C. in plasma or serum and samples taken at approx. 9 regular intervals between t=0 and t=156 min are analysed by HPLC.
This is done by subsequent injections of the drug, plasma, and a co-injection with the drug and the plasma, followed by optimisation of the LC method parameters until a satisfactory separation is obtained. Three parallel experiments are performed for each plasma type. 100 ml of peptide is mixed with 900 ml plasma at t=0 and incubated at 37° C. (drug-plasma mixture conc. 0.1 mg/ml). Samples of 100 ml of the drug-plasma mixture are removed at appropriate intervals and the degradation stopped by precipitation of the sample with 10 ml MeCN:TFA 50:50 v/v. A control plasma sample without the drug treated in the same manner is also taken. The plasma samples are centrifuged for 15 min. at 12,000 rpm (Eppendorf centrifuge) at ambient temperature. The resulting supernatant solution is transferred to 300 ml HP autosamler vials and analyzed by HPLC. The samples are analyzed in the following order: blank, the peptide at 0.1 mg/mL, the plasma without the peptide, the three parallel samples for t=0, the three parallel samples for t=5 min. the three parallel samples for t=10 min. etc. […]

[4] = In vitro plasma and serum stability, human; format: in vitro ADME; settings: for T½, PLASMA, HEPARIN HUMAN: 37° C., 0.1 mg/ml
Experimental: as §1
This is done by subsequent injections of the drug, plasma, and a co-injection with the drug and the plasma, followed by optimisation of the LC method parameters until a satisfactory separation is obtained. Three parallel experiments are performed for each plasma type. 100 ml of peptide is mixed with 900 ml plasma at t=0 and incubated at 37° C. (drug-plasma mixture conc. 0.1 mg/ml). Samples of 100 ml of the drug-plasma mixture are removed at appropriate intervals and the degradation stopped by precipitation of the sample with 10 ml MeCN:TFA 50:50 v/v. A control plasma sample without the drug treated in the same manner is also taken. The plasma samples are centrifuged for 15 min. at 12,000 rpm (Eppendorf centrifuge) at ambient temperature. The resulting supernatant solution is transferred to 300 ml HP autosamler vials and analyzed by HPLC. The samples are analyzed in the following order: blank, the peptide at 0.1 mg/mL, the plasma without the peptide, the three parallel samples for t=0, the three parallel samples for t=5 min. the three parallel samples for t=10 min. etc. And finally the three parallel samples for t=0 are repeated to make sure that there have been no degradation or other failure during the analyses. The sample concentrations (peak height in mAU) are plotted vs. time and fitted to a function describing a mono exponential decay (Excel).

[5] = tested on: regional ischemia in the rabbit; settings: cited from earlier work
[6] = tested on: phosphoinositol turnover in neonatal rat cardiomyocytes; experiment: Phosphoinositol turnover in primary cardiomyocyte cultures; format: cell-based
Experimental: Neonatal Wistar rats (1-2 days old) are used. Hank's calcium- and magnesium-free balanced salt solution, buffered with 10 mM HEPES is used for washing during cell separation procedures. The hearts are excised, the ventricles isolated and the tissue cut into small pieces. The myocardial cells are isolated by stepwise enzymatic degradation with collagenase 0.05%, as described by ^[35]. After repeated rounds of centrifugation and washing, the precipitated cells are resuspended in culture medium M199 with Earle's salt, 10% NCS, penicillin (75 U/mL), and streptomycin (75 U/mL) and pre-plated in a Petri dish for 90 minutes. The non-adherent cells are collected in the culture medium and plated in multidishes at 2.5*10^5 cells/well. The cultures are kept in a water-saturated CO2-incubator at 37° C. The cardiomyocyte cultures are used for analyses after 6-7 days.
Cardiomyocyte cultures are incubated for 48 hours in culture medium containing 4 μCi/mL myo-[2-^3H]inositol to label the inositol phospholipids. On the day of analysis the medium is replaced by a buffer solution containing lithium and incubated at 37° C., as described by Meier et al.^[36]. After at least five minutes this buffer is replaced by the same volume of buffer containing test compound and incubated for exactly 20 minutes. The reaction is stopped by rapid replacement of the buffer by ice cold 4% v/v perchloric acid (PCA) and incubation for at least 20 minutes at 0° C. The PCA-extract is neutralised and the [^3H]inositol phosphates are separated by anion-exchange chromatography using Amprep™ columns containing 100 mg SAX Quaternary amine. The [^3H]inositol mono-phosphates are eluted and radioactivity in the fraction measured by liquid scintillation counting.
Before adding test substances to the cultures, the cells are depleted of glucose and oxygen by incubating them in a N2-atmosphere in glucose-free lithium-buffer for 10 minutes at 37° C. Control cells are incubated likewise only at normal atmospheric conditions and in a buffer containing glucose.

[7] = tested on: membranes from rabbit heart; settings: cited from earlier work
[8] = tested on: connexin 43 in keratinocytes; settings: keratinocytes of middel aged and elderly people; cited from earlier work
human osteoblastic cells = experiment: DDT-induced uncoupling in human osteoblast cells, Lucifer Yellow microinjection; format: cell-based; settings: 13 μM, 60 minutes; control 14.5 cells
Experimental: Human osteoblast cells: Cells were isolated from human bone marrow obtained by puncture of the posterior iliac spine of healthy volunteers (aged 20-36): 10-15 ml marrow material was collected in 15 ml PBS+Ca, Mg (Life Technologies, Cat.No. 14040) with 100 U/ml Heparin (Sigma, Cat.No. H-3149). The mononuclear fraction of the marrow was isolated on a Lymphoprep gradient (Nycomed Pharma, Cat.No. 1001967), by centrifugation at 2200 rpm for 30 min. After harvesting, the mononuclear fraction was washed once with culture medium and centrifuged at 1800 rpm for 10 min. Subsequently cells were counted and plated in culture medium at 8×10^6 cells/100 mm dish. hOB medium (all reagents obtained from Life Technologies): MEM w/o Phenol Red w/Glutamax (Cat.No. 041-93013) supplemented with 10% heat inactivated fetal calf serum (Cat.No. 10106) and 0.1% Penicillin/Streptomycin (Cat.No. 15140). Medium was changed the following day and the cells were cultured at 37° C. in 5%CO2 with medium change every 7 days. After 3-4 weeks of culture the cells had reached 70% confluence. The medium was then supplemented with 100 nM Dexamethasone (Sigma, Cat.No. D-4902) for 7 days. Cells were then plated for video imaging experiments: a 25 mm #1 glass coverslip was placed in a 35 mm dish (or each well of a 6-well multidish), cells were plated at 2.5×10^5 cells/coverslip and cultured for 2-3 days before use. […]

[9] = tested on: cerulein-induced acute pancreatitis; settings: 100 mg/kg orally; pancreatitis group 19%; cited from earlier work
GJIC = settings: 10(−10) to 10(−6) M; cited from earlier work

With Oc1ccc(C=Cc2cc(O)cc(O)c2)cc1 [Resveratrol, resveratrol] as the molecule, how does the “time until calcium-induced block relative to animals treated with vehicle” value ([1]; iv, 0.1 umol/kg) read?
Its value is 136±9%.

And the “prevention of down-regulation of GJIC by DDT, factor” value ([2]; 17-50 microM)?
Its value is 1.8.

And the “prevention of down-regulation of GJIC by TPA, factor” value ([2]; 17-50 microM)?
Its value is 2.7.

And the “increase of GJIC, factor compared with solvent vehicle controls” value ([2]; 17 to 50 microM, 6 h)?
The value was 1.3.

Which “CaCl2 mice In vivo, %” value [1] does the source give for cyclo(GAG[Hyp]PYN) [Compound 36] here?
Its value is 57 +/− 8%.

And the “CaCl2 mice Score” value [1]?
The value was 2.

What about the In vivo activity [1] of the same molecule?
The In vivo activity was “+++ (+++ refers to >60% increase in time until arrhythmia)”.

And the “T½, PLASMA, HEPARIN RABBIT” value [3]?
Its value is 30 hrs ± 8%.

What about the “Human plasma half life” value [4] of the same molecule?
Its value is 780 min.

And the “T½, PLASMA, HEPARIN HUMAN” value [4]?
Its value is 9 hrs ± 1%.

With H-PYNGAG[Hyp]-NH2 [Compound 27] as the molecule, how does the “stability in plasma and serum compared with AAP10” value [4] read?
Its value is “considerably more stable”.

What does the source list for H-GAG[Hyp]PY-NH2 [AAP10]?
concentration of maximal effect on dispersion of the epicardial activation-recovery interval [5]: 10^−8 mol/l; EC50 relative to the EC50 value for Compound 2 ([6]; metabolic stress induced by anoxia and glucose deprivation): 10 fold; EC50 relative to the EC50 value for Compound 2 ([6]; normoxia): 200 fold; CaCl2 mice In vivo, % [1]: 76 +/− 21%; CaCl2 mice Score [1]: 3; In vivo activity [1]: +++ (+++ refers to >60% increase in time until arrhythmia); value given for AAP10 by Dhein et al. [7]: 0.2 nM

Which “optimal concentration for increase of the content of connexin 43” value [8] does the source give for COc1cc2c(cc1O)C[C@H]1c3c(cc(O)c(OC)c3-2)CCN1C [boldine] here?
The value was 50 nM.

Which results are given for cyclo(GAG[Hyp]PYQ) [Compound 35]?
CaCl2 mice In vivo, % [1]: 48 +/− 14%; CaCl2 mice Score [1]: 2; In vivo activity [1]: ++ (++ refers to 30-50% increase in time until arrhythmia); T½, PLASMA, HEPARIN RABBIT [3]: 14 hrs ± 2%; Human plasma half life [4]: 900 min; T½, PLASMA, HEPARIN HUMAN [4]: 15 hrs ± 1%

What does the source list for NC[C@H](O)c1ccc(O)c(O)c1 [Noradrenaline]?
Emax of phosphoinositol turnover ([6]; atmosphere of N2 and depleted of glucose): 2248±702 cpm; Emax of phosphoinositol turnover ([6]; normal atmospheric and nutritional conditions): 3852±266 cpm

Which “cellular coupling, median number of cells with dye” value (human osteoblastic cells) does the source give for Clc1ccc(C(c2ccc(Cl)cc2)C(Cl)(Cl)Cl)cc1 [DDT, 1,1-bis(p-chlorophenyl)-2,2,2-trichlorethane, reference compound] here?
The value was 7 cells.

What does the source list for Nc1nc(N)nc(-c2cc(Cl)ccc2Cl)n1 [irsogladine, 6-(2,5-dichlorophenyl)-2,4-diamino-1,3,5-triazine]?
number of Cx32 grains, % of the normal control value [9]: 70%; effect on GJIC, compound alone (GJIC): did not affect GJIC

Which “CaCl2 mice In vivo, %” value [1] does the source give for “3-(4-hydroxyphenyl)propionyl-Pro-Hyp-Gly-Ala-Gly-OH [HP5, reference compound]” here?
The value was 50 +/− 11%.

What about the “CaCl2 mice Score” value [1] of the same molecule?
The value was 2.

What about the In vivo activity [1] of the same molecule?
The In vivo activity was “++ (++ refers to 30-50% increase in time until arrhythmia)”.

Which “CaCl2 mice In vivo, %” value [1] does the source give for H-GAGGPY-NH2 [H-GAGGPY-NH2] here?
Its value is 32 +/− 9%.

For CC(=O)N[C@@H](Cc1ccc(O)cc1)C(=O)N[C@@H](CC(=O)O)C(=O)N[C@@H](CC(N)=O)C(=O)NCC(N)=O [Ac-Y-D-N-G-NH2] (Ac-YDNG-NH2), which “CaCl2 mice In vivo, %” value [1] is on record?
Its value is 17 +/− 8%.

Which “CaCl2 mice In vivo, %” value [1] does the source give for C[C@H](NC(=O)CN)C(=O)N[C@@H](CC(N)=O)C(=O)N[C@@H](Cc1ccc(O)cc1)C(N)=O [H-GANY-NH2] (H-GANY-NH2) here?
The value was 21 +/− 7%.
